Experimental data taken from patent publication US20070049593A1 (priority 2004, published 2007).
pIC50: −log10 of the molar value. Structures can show the parent of a compound that is named as a salt.

Target: T1, HCV polymerase (Hepatitis C virus genotype 1b, UniProt P26663)
T1 construct: a region encoding NS5B (J Virol 1991 March, 65(3), 1105-13, 544 amino acids after deletion of 47 amino acids on the C-terminal); 6xHis (C); made in house; host or cells: Escherichia coli
Test: biochemical
Design: species or system HCV BK strain
Conditions: not given
How it was run: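 His-tagged NS5B (BK strain, 47-aa C-terminal deletion, E. coli-expressed) at 0.5 μg/ml copied 5 μg/ml run-off RNA bearing the HCV 3′ UTR with 2 μM UTP plus [3H]UTP, 50 μM ATP/GTP, in pH 7.5 Tris with 5 mM MgCl2, 25 °C, 90 min. TCA-precipitated RNA was counted and IC50 calculated.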

T1 sequence (P26663 2420-2963): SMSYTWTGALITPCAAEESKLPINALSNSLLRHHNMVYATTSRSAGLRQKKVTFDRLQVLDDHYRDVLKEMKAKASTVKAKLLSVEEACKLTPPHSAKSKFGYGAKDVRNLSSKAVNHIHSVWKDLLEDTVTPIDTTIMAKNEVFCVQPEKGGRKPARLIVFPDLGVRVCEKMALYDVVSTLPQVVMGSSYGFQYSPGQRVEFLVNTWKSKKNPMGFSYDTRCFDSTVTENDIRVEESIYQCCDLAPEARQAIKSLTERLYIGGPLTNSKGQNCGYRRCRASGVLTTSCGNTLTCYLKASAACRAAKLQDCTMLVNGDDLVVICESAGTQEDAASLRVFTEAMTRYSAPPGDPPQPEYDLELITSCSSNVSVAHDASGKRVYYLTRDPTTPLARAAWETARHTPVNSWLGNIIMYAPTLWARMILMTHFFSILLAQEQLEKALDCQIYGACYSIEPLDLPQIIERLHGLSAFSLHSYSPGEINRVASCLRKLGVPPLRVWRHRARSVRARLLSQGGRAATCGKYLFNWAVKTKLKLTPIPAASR

SMILES	pIC50
CCc1ccc2c(c1)N(CCC1CCCN(C(C)C)C1)CCn1c-2c(C2CCCCC2)c2ccc(C(=O)O)cc21 (centres unmarked) [Example 1-369, 13-cyclohexyl-3-ethyl-5-[2-(1-isopropylpiperidin-3-yl)ethyl]-6,7-dihydro-5H-benzo[5,6][1,4]diazepino[7,1-a]indole-10-carboxylic acid]	> 7.00
CCOc1ccc2c(c1)N(CCN1CCCC(COC)C1)CCn1c-2c(C2CCCCC2)c2ccc(C(=O)O)cc21 (centres unmarked) [Example 1-370, 13-cyclohexyl-3-ethoxy-5-[2-(3-methoxymethylpiperidin-1-yl)ethyl]-6,7-dihydro-5H-benzo[5,6][1,4]diazepino[7,1-a]indole-10-carboxylic acid]	> 7.00
CC(C)N1CCCC(OCCN2CCn3c(c(C4CCCCC4)c4ccc(C(=O)O)cc43)-c3ccc(Cl)cc32)C1 (centres unmarked) [Example 1-371, 3-chloro-13-cyclohexyl-5-[2-(1-isopropylpiperidin-3-yloxy)ethyl]-6,7-dihydro-5H-benzo[5,6][1,4]diazepino[7,1-a]indole-10-carboxylic acid]	> 7.00
CCC1CCCN(CCCN2CCn3c(c(C4CCCCC4)c4ccc(C(=O)O)cc43)-c3ccc(Cl)cc32)C1 (centres unmarked) [Example 1-372, 3-chloro-13-cyclohexyl-5-[3-(3-ethylpiperidin-1-yl)propyl]-6,7-dihydro-5H-benzo[5,6][1,4]diazepino[7,1-a]indole-10-carboxylic acid dihydrochloride]	> 7.00
Cc1cc(COc2ccc3c(c2)N(CCN(C)C)CCn2c-3c(C3CCCCC3)c3ccc(C(=O)O)cc32)no1 [Example 1-374, 13-cyclohexyl-5-(2-dimethylaminoethyl)-3-(5-methylisoxazol-3-ylmethoxy)-6,7-dihydro-5H-benzo[5,6][1,4]diazepino[7,1-a]indole-10-carboxylic acid dihydrochloride]	> 7.00
CC(C)COc1ccc2c(c1)N(CCN1CCCC(C)C1)CCn1c-2c(C2CCCCC2)c2ccc(C(=O)O)cc21 (centres unmarked) [Example 1-375, 13-cyclohexyl-3-isobutoxy-5-[2-(3-methylpiperidin-1-yl)ethyl]-6,7-dihydro-5H-benzo[5,6][1,4]diazepino[7,1-a]indole-10-carboxylic acid dihydrochloride]	> 7.00
CCC1CCCN(CCN2CCn3c(c(C4CCCCC4)c4ccc(C(=O)O)cc43)-c3ccc(OCC(C)C)cc32)C1 (centres unmarked) [Example 1-376, 13-cyclohexyl-5-[2-(3-ethylpiperidin-1-yl)ethyl]-3-isobutoxy-6,7-dihydro-5H-benzo[5,6][1,4]diazepino[7,1-a]indole-10-carboxylic acid dihydrochloride]	> 7.00
COCC1CCCN(CCN2CCn3c(c(C4CCCCC4)c4ccc(C(=O)O)cc43)-c3ccc(OCC(C)C)cc32)C1 (centres unmarked) [Example 1-377, 13-cyclohexyl-3-isobutoxy-5-[2-(3-methoxymethylpiperidin-1-yl)ethyl]-6,7-dihydro-5H-benzo[5,6][1,4]diazepino[7,1-a]indole-10-carboxylic acid dihydrochloride]	> 7.00
CCN(CC)CCCN1CCn2c(c(C3CCCCC3)c3ccc(C(=O)O)cc32)-c2ccc(C)cc21 [Example 1-378, 13-cyclohexyl-5-(3-diethylaminopropyl)-3-methyl-6,7-dihydro-5H-benzo[5,6][1,4]diazepino[7,1-a]indole-10-carboxylic acid dihydrochloride]	> 7.00
O=C(O)c1ccc2c(C3CCCCC3)c3n(c2c1)CCN(CCC1CCCN(C2CCCCC2)C1)c1cc(Cl)ccc1-3 (centres unmarked) [Example 1-379, 3-chloro-13-cyclohexyl-5-[2-(1-cyclohexylpiperidin-3-yl)ethyl]-6,7-dihydro-5H-benzo[5,6][1,4]diazepino[7,1-a]indole-10-carboxylic acid dihydrochloride]	> 7.00
Cc1ccc2c(c1)N(CCC1CCCN(C3CCCC3)C1)CCn1c-2c(C2CCCCC2)c2ccc(C(=O)O)cc21 (centres unmarked) [Example 1-380, 13-cyclohexyl-5-[2-(1-cyclopentylpiperidin-3-yl)ethyl]-3-methyl-6,7-dihydro-5H-benzo[5,6][1,4]diazepino[7,1-a]indole-10-carboxylic acid dihydrochloride]	> 7.00
CC(C)c1ccc2c(c1)N(CCC1CCCN(C(C)C)C1)CCn1c-2c(C2CCCCC2)c2ccc(C(=O)O)cc21 (centres unmarked) [Example 1-381, 13-cyclohexyl-3-isopropyl-5-[2-(1-isopropylpiperidin-3-yl)ethyl]-6,7-dihydro-5H-benzo[5,6][1,4]diazepino[7,1-a]indole-10-carboxylic acid dihydrochloride]	> 7.00
CCC1CCN(CCN2CCn3c(c(C4CCCCC4)c4ccc(C(=O)O)cc43)-c3ccccc32)C1 (centres unmarked) [Example 1-382, 13-cyclohexyl-5-[2-(3-ethylpyrrolidin-1-yl)ethyl]-6,7-dihydro-5H-benzo[5,6][1,4]diazepino[7,1-a]indole-10-carboxylic acid dihydrochloride]	> 7.00
CCC1CCN(CCN2CCn3c(c(C4CCCCC4)c4ccc(C(=O)O)cc43)-c3ccc(Cl)cc32)C1 (centres unmarked) [Example 1-383, 3-chloro-13-cyclohexyl-5-[2-(3-ethylpyrrolidin-1-yl)ethyl]-6,7-dihydro-5H-benzo[5,6][1,4]diazepino[7,1-a]indole-10-carboxylic acid dihydrochloride]	> 7.00
CCC1CCN(CCN2CCn3c(c(C4CCCCC4)c4ccc(C(=O)O)cc43)-c3ccc(C)cc32)C1 (centres unmarked) [Example 1-384, 13-cyclohexyl-5-[2-(3-ethylpyrrolidin-1-yl)ethyl]-3-methyl-6,7-dihydro-5H-benzo[5,6][1,4]diazepino[7,1-a]indole-10-carboxylic acid dihydrochloride]	> 7.00
CC(C)COc1ccc2c(c1)N(CCC1CCCN(C(C)C)C1)CCn1c-2c(C2CCCCC2)c2ccc(C(=O)O)cc21 (centres unmarked) [Example 1-385, 13-cyclohexyl-3-isobutoxy-5-[2-(1-isopropylpiperidin-3-yl)ethyl]-6,7-dihydro-5H-benzo[5,6][1,4]diazepino[7,1-a]indole-10-carboxylic acid dihydrochloride]	> 7.00
CCC(CC)N1CCCC(CCN2CCn3c(c(C4CCCCC4)c4ccc(C(=O)O)cc43)-c3ccc(Cl)cc32)C1 (centres unmarked) [Example 1-386, 3-chloro-13-cyclohexyl-5-{2-[1-(1-ethylpropyl)piperidin-3-yl]ethyl}-6,7-dihydro-5H-benzo[5,6][1,4]diazepino[7,1-a]indole-10-carboxylic acid dihydrochloride]	> 7.00
CCOCC1CCCN(CCN2CCn3c(c(C4CCCCC4)c4ccc(C(=O)O)cc43)-c3ccccc32)C1 (centres unmarked) [Example 1-387, 13-cyclohexyl-5-[2-(3-ethoxymethylpiperidin-1-yl)ethyl]-6,7-dihydro-5H-benzo[5,6][1,4]diazepino[7,1-a]indole-10-carboxylic acid dihydrochloride]	> 7.00
COCC1CCCN(CCN2CCn3c(c(C4CCCC4)c4ccc(C(=O)O)cc43)-c3ccc(Cl)cc32)C1 (centres unmarked) [Example 1-390, 3-chloro-13-cyclopentyl-5-[2-(3-methoxymethylpiperidin-1-yl)ethyl]-6,7-dihydro-5H-benzo[5,6][1,4]diazepino[7,1-a]indole-10-carboxylic acid]	> 7.00
CCOCC1CCCN(CCN2CCn3c(c(C4CCCCC4)c4ccc(C(=O)O)cc43)-c3ccc(Cl)cc32)C1 (centres unmarked) [Example 1-391, 3-chloro-13-cyclohexyl-5-[2-(3-ethoxymethylpiperidin-1-yl)ethyl]-6,7-dihydro-5H-benzo[5,6][1,4]diazepino[7,1-a]indole-10-carboxylic acid dihydrochloride]	> 7.00
CCOCC1CCCN(CCN2CCn3c(c(C4CCCCC4)c4ccc(C(=O)O)cc43)-c3ccc(C)cc32)C1 (centres unmarked) [Example 1-392, 13-cyclohexyl-5-[2-(3-ethoxymethylpiperidin-1-yl)ethyl]-3-methyl-6,7-dihydro-5H-benzo[5,6][1,4]diazepino[7,1-a]indole-10-carboxylic acid dihydrochloride]	> 7.00
CC(C)OC1CCCN(CCN2CCn3c(c(C4CCCCC4)c4ccc(C(=O)O)cc43)-c3ccc(Cl)cc32)C1 (centres unmarked) [Example 1-393, 3-chloro-13-cyclohexyl-5-[2-(3-isopropoxypiperidin-1-yl)ethyl]-6,7-dihydro-5H-benzo[5,6][1,4]diazepino[7,1-a]indole-10-carboxylic acid monohydrochloride]	> 7.00
Cc1ccc2c(c1)N(CCN1CCCC(OC(C)C)C1)CCn1c-2c(C2CCCCC2)c2ccc(C(=O)O)cc21 (centres unmarked) [Example 1-394, 13-cyclohexyl-5-[2-(3-isopropoxypiperidin-1-yl)ethyl]-3-methyl-6,7-dihydro-5H-benzo[5,6][1,4]diazepino[7,1-a]indole-10-carboxylic acid monohydrochloride]	> 7.00
CC(C)OC1CCCN(CCN2CCn3c(c(C4CCCCC4)c4ccc(C(=O)O)cc43)-c3ccccc32)C1 (centres unmarked) [Example 1-395, 13-cyclohexyl-5-[2-(3-isopropoxypiperidin-1-yl)ethyl]-6,7-dihydro-5H-benzo[5,6][1,4]diazepino[7,1-a]indole-10-carboxylic acid monohydrochloride]	> 7.00

Same assay, conditions: 25° C., 90 min; [5,6-3H]UTP incorporation into RNA; read-out: HCV polymerase inhibitory activity IC50

SMILES	pIC50
CC(C)COc1ccc2c(c1)N(CCN1CCCCC1)CCn1c-2c(C2CCCCC2)c2ccc(C(=O)O)cc21 [Example 1-373, 13-cyclohexyl-3-isobutoxy-5-[2-(piperidin-1-yl)ethyl]-6,7-dihydro-5H-benzo[5,6][1,4]diazepino[7,1-a]indole-10-carboxylic acid dihydrochloride]	> 7.00
CCC1CCCN(CCN2CCn3c(c(C4CCCC4)c4ccc(C(=O)O)cc43)-c3ccc(Cl)cc32)C1 (centres unmarked) [Example 1-389, 3-chloro-13-cyclopentyl-5-[2-(3-ethylpiperidin-1-yl)ethyl]-6,7-dihydro-5H-benzo[5,6][1,4]diazepino[7,1-a]indole-10-carboxylic acid]	> 7.00
